Data as given in patent publication US20260315492A1, “5,6-FUSED BICYCLIC AMIDES AND COMPOSITIONS FOR USE AS 15-PROSTAGLANDIN DEHYDROGENASE MODULATORS” (AMGEN INC., priority 2023, published 2026).

Target: T1, human recombinant 15-PGDH (Homo sapiens, UniProt P15428)
T1 sequence (P15428 1-266): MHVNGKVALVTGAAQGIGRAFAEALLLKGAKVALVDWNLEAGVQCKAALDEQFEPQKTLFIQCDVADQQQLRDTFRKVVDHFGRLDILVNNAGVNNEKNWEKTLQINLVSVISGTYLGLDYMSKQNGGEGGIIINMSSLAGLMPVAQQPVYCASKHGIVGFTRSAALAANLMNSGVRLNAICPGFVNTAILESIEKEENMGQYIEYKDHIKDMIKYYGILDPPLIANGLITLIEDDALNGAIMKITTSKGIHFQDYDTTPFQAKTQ
Assay: Inhibition of recombinant 15-PGDH enzymatic activity (NADH quantification after addition of PGE2 and NAD+)
Type: biochemical
Details: recombinant 15-PGDH; 15 min pre-incubation, 60-minute reaction, room temperature, pH 7.5; PGE2 and NAD+; read-out: PGDH-Lumi IC50
Outline: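 Human recombinant 15-PGDH in 50 mM Tris pH 7.5, 0.01% Tween-20, 100 μM DTT, pre-incubated 15 min at room temperature with 22-point 2-fold compound dilutions. Reaction started with PGE2 and β-NAD+, run 60 min at room temperature, quenched. NADH signal read as activity; IC50 from concentration-response.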

Row | SMILES | IC50 [nM]
1 | O=C(c1cc2ccc(-c3ccc4ncccc4c3)nc2s1)N1CCOCC1 [Compound B49, 4-morpholinyl(6-(6-quinolinyl)thieno[2,3-b]pyridin-2-yl)methanone] | 77.8
2 | CC1CC(F)(F)CCN1C(=O)c1cc2ccc(-c3cnc4nn(C)cc4c3)nc2s1 (centres unmarked) [Compound B27] | 1.7
3 | Cn1cc2cc(-c3ccc4cc(C(=O)N5CCOC(C(F)(F)F)C5)sc4n3)cnc2n1 (centres unmarked) [Compound B46, (6-(2-methyl-2H-pyrazolo[3,4-b]pyridin-5-yl)thieno[2,3-b]pyridin-2-yl)(2-(trifluoromethyl)-4-morpholinyl)methanone] | 2.6
4 | C[C@H]1CC(F)(F)CCN1C(=O)c1cc2ccc(-c3cnc4nn(C)cc4c3)nc2s1 (single isomer, unassigned) [Compound B27S] | 1.24
5 | C[C@H]1COCCN1C(=O)c1cc2ccc(-c3cnc4nccnc4c3)nc2s1 [Compound B57S, ((3S)-3-methyl-4-morpholinyl)(6-(pyrido[2,3-b]pyrazin-7-yl)thieno[2,3-b]pyridin-2-yl)methanone] | 10.3
